ChEMBL document CHEMBL5505958, “Optimization of sequence and chiral content enhances therapeutic potential of tilapia piscidin peptides” (Eur J Med Chem, 2024)
The source made the active and inactive calls.

What was measured:
Klebsiella pneumoniae [1] = assay: Bactericidal activity against Klebsiella pneumoniae BAA 2473 assessed as inhibition of bacterial growth in presence of 10 microg/ml of trypsin (reference value: 1.56 to 3.13 microM); type: functional
Salmonella typhimurium [2] = assay: Antibacterial activity against Salmonella typhimurium DT104 assessed as inhibition of bacterial growth incubated for 16 to 20 hrs; type: functional, Salmonella enterica subsp. enterica serovar Typhimurium; conditions: Salmonella enterica, time 16-20 hrs
Klebsiella pneumoniae [3] = assay: Bactericidal activity against Klebsiella pneumoniae BAA 2473 assessed as inhibition of bacterial growth in presence of 10 microg/ml of chymotrypsin (reference value: 1.56 to 3.13 microM); type: functional
Klebsiella pneumoniae [4] = assay: Antibacterial activity against Klebsiella pneumoniae BAA 2473 assessed as inhibition of bacterial growth in presence of meropenem; type: functional
Klebsiella pneumoniae [5] = assay: Bactericidal activity against Klebsiella pneumoniae BAA 2473 assessed as inhibition of bacterial growth in presence of 0.1 microg/ml of pepsin (reference value: 1.56 to 3.13 microM); type: functional
Klebsiella aerogenes = assay: Antibacterial activity against Enterobacter aerogenes 15630 assessed as inhibition of bacterial growth incubated for 16 to 20 hrs; type: functional; conditions: time 16-20 hrs
Rhizopus arrhizus = assay: Fungicidal activity against Rhizopus oryzae 34550 assessed as inhibition of fungal growth incubated for 16 to 20 hrs in presence of human serum; type: functional; conditions: time 16-20 hrs
Klebsiella pneumoniae [6] = assay: Bactericidal activity against Klebsiella pneumoniae 10692 assessed as inhibition of bacterial growth incubated for 16 to 20 hrs; type: functional; conditions: time 16-20 hrs
Escherichia coli = assay: Bactericidal activity against Escherichia coli 10675 assessed as inhibition of bacterial growth incubated for 16 to 20 hrs in presence of human serum; type: functional; conditions: time 16-20 hrs
Klebsiella pneumoniae [7] = assay: Antibacterial activity against Klebsiella pneumoniae BAA 2473 assessed as inhibition of bacterial growth in presence of doxycycline; type: functional
Salmonella typhimurium [8] = assay: Bactericidal activity against Salmonella typhimurium DT104 assessed as inhibition of bacterial growth incubated for 16 to 20 hrs in presence of human serum; type: functional, Salmonella enterica subsp. enterica serovar Typhimurium; conditions: Salmonella enterica, time 16-20 hrs
Pseudomonas aeruginosa [9] = assay: Antibacterial activity against Pseudomonas aeruginosa 19660 assessed as inhibition of bacterial growth incubated for 16 to 20 hrs in presence of human serum; type: functional; conditions: time 16-20 hrs
Klebsiella pneumoniae [10] = assay: Antibacterial activity against Klebsiella pneumoniae BAA 2473 assessed as inhibition of bacterial growth incubated for 16 to 20 hrs; type: functional; conditions: time 16-20 hrs
Pseudomonas aeruginosa [11] = assay: Bactericidal activity against Pseudomonas aeruginosa 19660 assessed as inhibition of bacterial growth incubated for 16 to 20 hrs in presence of human serum; type: functional; conditions: time 16-20 hrs
Klebsiella oxytoca [12] = assay: Antibacterial activity against Klebsiella oxytoca 13985 assessed as inhibition of bacterial growth incubated for 16 to 20 hrs in presence of human serum; type: functional; conditions: time 16-20 hrs
Klebsiella pneumoniae [13] = assay: Antibacterial activity against Klebsiella pneumoniae BAA 2473 assessed as inhibition of bacterial growth in presence of 0.1 microg/ml of chymotrypsin (reference value: 1.56 to 3.13 microM); type: functional
[14] = system: Staphylococcus haemolyticus; assay: Bactericidal activity against Staphylococcus haemolyticus 15237 assessed as inhibition of bacterial growth incubated for 16 to 20 hrs; type: functional; conditions: time 16-20 hrs
Klebsiella pneumoniae [15] = assay: Antibacterial activity against Klebsiella pneumoniae BAA 2473 assessed as inhibition of bacterial growth in presence of 0.1 microg/ml of proteinase K (reference value: 1.56 to 3.13 microM); type: functional
Klebsiella pneumoniae [16] = assay: Induction of morphological changes in Klebsiella pneumoniae BAA 2473 assessed as membrane deformations with protruding granules at by transmission electron microscopy analysis; type: functional, organism-based
Cell membrane [17] = assay: Induction of cell membrane depolarization in Klebsiella pneumoniae BAA 2473 assessed as increase in fluorescence intensity at 1 times MIC incubated for 40 mins by DiBAC4(3) fluorescent dye based assay; type: cell membranes
Klebsiella oxytoca [18] = assay: Bactericidal activity against Klebsiella oxytoca 13985 assessed as inhibition of bacterial growth incubated for 16 to 20 hrs in presence of human serum; type: functional; conditions: time 16-20 hrs
Enterococcus faecium = assay: Antibacterial activity against Enterococcus faecium 10067 assessed as inhibition of bacterial growth incubated for 16 to 20 hrs; type: functional; conditions: time 16-20 hrs
Salmonella enterica = assay: Antibacterial activity against Salmonella enterica 15455 assessed as inhibition of bacterial growth incubated for 16 to 20 hrs; type: functional; conditions: time 16-20 hrs
[19] = system: Staphylococcus haemolyticus; assay: Antibacterial activity against Staphylococcus haemolyticus 15237 assessed as inhibition of bacterial growth incubated for 16 to 20 hrs; type: functional; conditions: time 16-20 hrs
Enterococcus faecalis = assay: Antibacterial activity against Enterococcus faecalis 10066 assessed as inhibition of bacterial growth incubated for 16 to 20 hrs; type: functional; conditions: time 16-20 hrs
Acinetobacter baumannii [20] = assay: Antibacterial activity against Acinetobacter baumannii 10591 assessed as inhibition of bacterial growth incubated for 16 to 20 hrs in presence of human serum; type: functional; conditions: time 16-20 hrs
Klebsiella pneumoniae [21] = assay: Antibacterial activity against Klebsiella pneumoniae BAA 2473 assessed as inhibition of bacterial growth in presence of 1 microg/ml of proteinase K (reference value: 1.56 to 3.13 microM); type: functional
Cell membrane [22] = assay: Induction of outer cell membrane permeabilization in Klebsiella pneumoniae BAA 2473 assessed as increase in fluorescence intensity by PI staining based analysis; type: cell membranes
Acinetobacter baumannii [23] = assay: Bactericidal activity against Acinetobacter baumannii 10591 assessed as inhibition of bacterial growth incubated for 16 to 20 hrs; type: functional; conditions: time 16-20 hrs
Klebsiella pneumoniae [24] = assay: Antibacterial activity against Klebsiella pneumoniae BAA 2473 assessed as inhibition of bacterial growth in presence of 10 microg/ml of pepsin (reference value: 1.56 to 3.13 microM); type: functional
Staphylococcus aureus = assay: Bactericidal activity against Staphylococcus aureus 10780 assessed as inhibition of bacterial growth incubated for 16 to 20 hrs in presence of human serum; type: functional; conditions: time 16-20 hrs
Klebsiella pneumoniae [25] = assay: Bactericidal activity against Klebsiella pneumoniae BAA 2473 assessed as inhibition of bacterial growth incubated for 16 to 20 hrs; type: functional; conditions: time 16-20 hrs
Vibrio vulnificus [26] = assay: Antibacterial activity against Vibrio vulnificus 204 assessed as inhibition of bacterial growth incubated for 16 to 20 hrs; type: functional; conditions: time 16-20 hrs
Pseudomonas aeruginosa [27] = assay: Antibacterial activity against Pseudomonas aeruginosa 19660 assessed as inhibition of bacterial growth incubated for 16 to 20 hrs; type: functional; conditions: time 16-20 hrs
Klebsiella pneumoniae [28] = assay: Antibacterial activity against Klebsiella pneumoniae BAA 2473 assessed as inhibition of bacterial growth in presence of 1 microg/ml of trypsin (reference value: 1.56 to 3.13 microM); type: functional
Klebsiella pneumoniae [29] = assay: Bactericidal activity against Klebsiella pneumoniae BAA 2473 assessed as inhibition of bacterial growth in presence of 0.1 microg/ml of proteinase K (reference value: 1.56 to 3.13 microM); type: functional
Acinetobacter baumannii [30] = assay: Bactericidal activity against Acinetobacter baumannii 10591 assessed as inhibition of bacterial growth incubated for 16 to 20 hrs in presence of human serum; type: functional; conditions: time 16-20 hrs
Klebsiella pneumoniae [31] = assay: Synergistic antibacterial activity against Klebsiella pneumoniae BAA 2473 assessed as fractional inhibitory concentration index in presence of doxycycline by checkerboard assay; type: functional
Klebsiella pneumoniae [32] = assay: Antibacterial activity against Klebsiella pneumoniae BAA 2473 assessed as inhibition of bacterial growth in presence of 10 microg/ml of chymotrypsin (reference value: 1.56 to 3.13 microM); type: functional
Klebsiella pneumoniae [33] = assay: Antibacterial activity against Klebsiella pneumoniae BAA 2473 assessed as inhibition of bacterial growth in presence of 10 microg/ml of proteinase K (reference value: 1.56 to 3.13 microM); type: functional
Vibrio vulnificus [34] = assay: Bactericidal activity against Vibrio vulnificus 204 assessed as inhibition of bacterial growth incubated for 16 to 20 hrs; type: functional; conditions: time 16-20 hrs

CC(C)C[C@H](NC(=O)[C@H](CCCCN)NC(=O)[C@@H](CCCCN)NC(=O)[C@H](CC(C)C)NC(=O)[C@@H](N)Cc1ccccc1)C(=O)N[C@H](CC(C)C)C(=O)N[C@@H](CCCCN)C(=O)N[C@@H](C)C(=O)N[C@H](CC(C)C)C(=O)N[C@@H](Cc1ccccc1)C(=O)N[C@@H](CO)C(=O)N[C@H](C)C(=O)N1CCC[C@H]1C(=O)N[C@@H](CCCCN)C(=O)N[C@H](C)C(=O)N[C@@H](CC(C)C)C(=O)N[C@@H](CCCCN)C(=O)N[C@H](CCCNC(=N)N)C(=O)N[C@@H](CC(C)C)C(=O)N[C@@H](CC(C)C)C(=O)N[C@H](CCCNC(=N)N)C(=O)N[C@@H](CCCNC(=N)N)C(=O)N[C@@H](CCCNC(=N)N)C(=O)N[C@H](CCCNC(=N)N)C(=O)N[C@@H](CCCNC(=N)N)C(=O)O
0.39 µM: MIC (Klebsiella pneumoniae [7])
12.5 µM: MIC (Vibrio vulnificus [26]) | MBC (Vibrio vulnificus [34])
25 µM: MIC (Enterococcus faecalis) | MBC (Klebsiella pneumoniae [25])
active: Activity (Klebsiella pneumoniae [16]) | Activity (Cell membrane [17]) | Activity (Cell membrane [22])
1.56 µM: MBC (Klebsiella pneumoniae [1]) | MIC (Klebsiella aerogenes) | MBC [14] | MIC [19] | MIC (Klebsiella pneumoniae [28])
0.375: fractional inhibitory concentration index (FICI) (Klebsiella pneumoniae [31])
100 µM: MBC (Rhizopus arrhizus) | MBC (Staphylococcus aureus)
6.25 µM: MIC (Salmonella typhimurium [2]) | MBC (Pseudomonas aeruginosa [11]) | MBC (Acinetobacter baumannii [30])
3.13 µM: MBC (Klebsiella pneumoniae [6]) | MBC (Salmonella typhimurium [8]) | MIC (Pseudomonas aeruginosa [9]) | MIC (Klebsiella oxytoca [12]) | MBC (Klebsiella oxytoca [18]) | MIC (Enterococcus faecium) | MIC (Salmonella enterica) | MIC (Acinetobacter baumannii [20]) | MBC (Acinetobacter baumannii [23]) | MIC (Pseudomonas aeruginosa [27])
0.78 µM: MBC (Klebsiella pneumoniae [3]) | MIC (Klebsiella pneumoniae [4]) | MBC (Klebsiella pneumoniae [5]) | MBC (Escherichia coli) | MIC (Klebsiella pneumoniae [10]) | MIC (Klebsiella pneumoniae [13]) | MIC (Klebsiella pneumoniae [15]) | MIC (Klebsiella pneumoniae [21]) | MIC (Klebsiella pneumoniae [24]) | MBC (Klebsiella pneumoniae [29]) | MIC (Klebsiella pneumoniae [32]) | MIC (Klebsiella pneumoniae [33])
